Like-named read-outs stand apart in the source and are kept apart here.
Key:
S. mansoni adult worms = assay: GSH/GSSG ratio in ex vivo adult worms; type: cell-based
Procedure: We assessed GSH/GSSG levels experimentally by treating S. mansoni adult worms with 50 µM of compounds, or respective controls 5 µM Auranofin, 50 µM PZQ or 50 µM MZM and 0.01% DMSO for 3 h. Worm homogenate was prepared by washing three times with PBS to remove residual compounds and ten volumes of ice cold 5% sulfosalicylic acid was added. Worms were manually homogenized on ice using VWR Pellet Mixer Adaptor. The worm suspension was centrifuged at 14000 × g, 4 °C for 10 min and the acid supernatants transferred. An equal volume of ice-cold neutralization buffer (500 mM HEPES, pH 8.0) was added to the acid supernatants.
GSH/GSSG assay was performed by diluting the acid supernatant (5-fold) with ice-cold dilution buffer (250 mM HEPES, pH 7.5). Using white opaque luminescence plate on ice, 25 µl of the diluted worm acid supernatant was added each well in triplicates. Total glutathione lysis reagent and GSSG lysis reagent, which contains alkylating agent N-ethylmaleimide (25 mM) were prepared following manufactures protocol and added to respective wells along with blank for background. Total glutathione lysis reagent or oxidized glutathione lysis reagent (25 µl) was added to respective wells containing worm acid supernatants and the plate was shaken for 5 min. Luciferin generation reagent (LGR) (50 µl) was added to all wells, briefly shaken and incubated at room temperature for 30 min. Luciferin detection reagent (LDR) (100 µl) was added to all wells, briefly shaken and incubated for 15 min at room temperature and the luminescence measured using microplate imager (BioTek Cytation3). GSH/GSSH ratio for DMSO control and compounds were calculated using (Net DMSO total glutathione RFU) – (Net DMSO GSSG RFU)/ (Net DMSO GSSG RFU)/2 and (Net inhibitor total glutathione RFU) – (Net inhibitor GSSG RFU)/ (Net inhibitor GSSG RFU)/2 respectively.

Human GR = target: T1, Human GR (Homo sapiens, UniProt P00390); assay: Human GR enzyme inhibition (GSSG reduction, NADPH oxidation); type: biochemical
T1 construct: made in house
T1 sequence (P00390 44-522): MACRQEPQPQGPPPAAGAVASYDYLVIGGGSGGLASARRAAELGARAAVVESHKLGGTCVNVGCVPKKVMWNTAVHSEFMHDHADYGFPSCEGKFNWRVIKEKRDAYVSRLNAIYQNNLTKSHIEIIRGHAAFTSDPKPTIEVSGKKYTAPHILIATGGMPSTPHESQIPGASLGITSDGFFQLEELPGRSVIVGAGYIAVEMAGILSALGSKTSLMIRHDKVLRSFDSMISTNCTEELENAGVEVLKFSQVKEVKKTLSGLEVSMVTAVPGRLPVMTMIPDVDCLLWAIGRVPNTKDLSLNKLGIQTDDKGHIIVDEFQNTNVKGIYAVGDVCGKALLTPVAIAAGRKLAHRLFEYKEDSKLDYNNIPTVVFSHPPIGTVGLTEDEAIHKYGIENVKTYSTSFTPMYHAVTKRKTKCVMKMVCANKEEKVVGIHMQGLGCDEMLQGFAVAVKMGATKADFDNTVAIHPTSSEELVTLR
Procedure: Recombinant TGR, human TrxR1, B. malayi (Bm)TrxR and human GR proteins were expressed and purified as described[20],[69],[79]. The codon optimized sequence for P. falciparum (PfTrxR, https://www.ncbi.nlm.nih.gov/protein/CAA60574.1/) with an N-terminal 6-His tag was synthesized and inserted into pET15b (GenScript) and expressed in BL21 (DE3) cells and purified as described for human GR[20]. TGR and TrxR enzyme inhibition assays were performed in triplicate at 25 °C as described[20] in 0.1 M potassium phosphate (pH 7.4), 10 mM EDTA, 100 µM NADPH and 0.01% Tween-20. TGR, human TrxR1 and BmTrxR (all at 4 nM) and PfTrxR (50 nM) were preincubated with the compounds for 15 min. The reaction was started with addition of an equal volume of DTNB (6 mM) and NADPH (100 µM) and the increase in A412 during the first 3 min was recorded. […] […] Activity was initiated with the addition of 1 mM GSSG and 100 μM NADPH and initial rates of NADPH oxidation were monitored at 340 nm. The reactions were done in triplicate. The IC50 was calculated in GraphPad Prism.

Human TrxR1 = target: T2, Human TrxR1 (Homo sapiens, UniProt Q16881); assay: Human TrxR1 enzyme inhibition (DTNB reduction); type: biochemical
T2 construct: made in house
T2 sequence (Q16881 1-499 isoform Q16881-5): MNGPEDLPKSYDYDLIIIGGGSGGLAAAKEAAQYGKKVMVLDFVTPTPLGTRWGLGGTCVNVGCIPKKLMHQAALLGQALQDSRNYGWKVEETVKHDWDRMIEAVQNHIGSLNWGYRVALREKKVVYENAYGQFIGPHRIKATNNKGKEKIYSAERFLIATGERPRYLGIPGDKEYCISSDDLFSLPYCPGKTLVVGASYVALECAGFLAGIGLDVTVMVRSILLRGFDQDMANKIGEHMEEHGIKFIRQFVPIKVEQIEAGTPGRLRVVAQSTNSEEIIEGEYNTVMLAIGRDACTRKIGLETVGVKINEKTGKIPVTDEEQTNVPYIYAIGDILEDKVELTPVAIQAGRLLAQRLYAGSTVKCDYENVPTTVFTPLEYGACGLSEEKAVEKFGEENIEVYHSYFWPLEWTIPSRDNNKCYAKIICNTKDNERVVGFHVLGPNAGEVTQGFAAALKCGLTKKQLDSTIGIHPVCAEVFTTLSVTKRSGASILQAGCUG
Procedure: Recombinant TGR, human TrxR1, B. malayi (Bm)TrxR and human GR proteins were expressed and purified as described[20],[69],[79]. The codon optimized sequence for P. falciparum (PfTrxR, https://www.ncbi.nlm.nih.gov/protein/CAA60574.1/) with an N-terminal 6-His tag was synthesized and inserted into pET15b (GenScript) and expressed in BL21 (DE3) cells and purified as described for human GR[20]. TGR and TrxR enzyme inhibition assays were performed in triplicate at 25 °C as described[20] in 0.1 M potassium phosphate (pH 7.4), 10 mM EDTA, 100 µM NADPH and 0.01% Tween-20. […] The reaction was started with addition of an equal volume of DTNB (6 mM) and NADPH (100 µM) and the increase in A412 during the first 3 min was recorded. […] The reaction was preincubated for 15 min. Activity was initiated with the addition of 1 mM GSSG and 100 μM NADPH and initial rates of NADPH oxidation were monitored at 340 nm. The reactions were done in triplicate. The IC50 was calculated in GraphPad Prism.

[1] = 1 hr, first data set (r117-133), baseline 55.82
[2] = 1 hr, first data set (r117-133), baseline = 100
[3] = 3 hr, first data set (r117-133), baseline 55.82
[4] = 3 hr, first data set (r117-133), baseline = 100

## Cc1oc(-c2ccc3c(c2)OCO3)nc1CN[C@@H]1C[C@@H]2C[C@H]([C@H]1C)C2(C)C [Compound 1]
S. mansoni adult worms; 1 hr, third data set
  Reduction (%) in GSH/GSSG ratio: 50.9919%
S. mansoni adult worms; 1 hr, third data set (r147-159), 0hr 72.45
  Ratio GSH/GSSG: 35.51
S. mansoni adult worms; 1 hr, third data set (r147-159), 0hr = 100
  % Ratio GSH/GSSG: 49.0081%
S. mansoni adult worms; 1 hr, third data set, (values given as fraction)
  Reduction (%) in GSH/GSSG ratio: 0.5099%
S. mansoni adult worms; 3 hr, third data set
  Reduction (%) in GSH/GSSG ratio: 78.3034%
S. mansoni adult worms; 3 hr, third data set (r147-159), 0hr 72.45
  Ratio GSH/GSSG: 15.72
S. mansoni adult worms; 3 hr, third data set (r147-159), 0hr = 100
  % Ratio GSH/GSSG: 21.6966%
S. mansoni adult worms; 3 hr, third data set, (values given as fraction)
  Reduction (%) in GSH/GSSG ratio: 0.78%
S. mansoni adult worms; adult worms, 3 h exposure to compounds at 50 μM
  Decrease (%) in GSH/GSSG ratio: 75%
Human GR
  Human GR (inhibition at 66.7 µM): n.i.
Human GR; hGR, 15 minutes pre-incubation, compound 15 µM, read-out: % inhibition
  inhibition at 15 µM: -1.22%
Human GR; hGR, 15 minutes pre-incubation, compound 30 µM, read-out: % inhibition
  inhibition at 30 µM: -0.832%
Human GR; hGR, 6 hours pre-incubation, compound 15 µM, read-out: % inhibition
  inhibition at 15 µM: -0.519%
Human GR; hGR, 6 hours pre-incubation, compound 30 µM, read-out: % inhibition
  inhibition at 30 µM: -1.06%
Human TrxR1; 15 min preincubation (enzyme + 100 µM NADPH + compound), read-out: Human TrxR1 IC50
  IC50: > 66.7 µM
Human TrxR1; 6 h preincubation, read-out: Human TrxR1 IC50 (µM) or inhibition (%) at 66.7 µM: IC50
  IC50: 37 ± 3.44 µM
Human TrxR1; hsTrxR, 15 minutes pre-incubation, compound 15 µM
  inhibition at 15 µM: 6.99%
Human TrxR1; hsTrxR, 15 minutes pre-incubation, compound 30 µM
  inhibition at 30 µM: 11.4%

## C[C@@H]1[C@H]2C[C@@H](C[C@H]1NCc1cc(-c3ccccc3)[nH]n1)C2(C)C [Compound 11]
S. mansoni adult worms; adult worms ex vivo, 1 hr
  % Ratio GSH/GSSG: 59.9789%
S. mansoni adult worms; adult worms ex vivo, 1 hr, relative to 0hr
  Reduction (%) in GSH/GSSG ratio: 1.477%
S. mansoni adult worms; adult worms ex vivo, 1 hr, relative to 0hr, values given as fraction
  Reduction (%) in GSH/GSSG ratio: 0.01477%
S. mansoni adult worms; adult worms ex vivo, 3 hr
  % Ratio GSH/GSSG: 59.8685%
S. mansoni adult worms; adult worms ex vivo, 3 hr, relative to 0hr
  Reduction (%) in GSH/GSSG ratio: 1.659%
S. mansoni adult worms; adult worms ex vivo, 3 hr, relative to 0hr, values given as fraction
  Reduction (%) in GSH/GSSG ratio: 0.01659%
Human GR
  Human GR (inhibition at 66.7 µM): n.i.
Human GR; 15 minutes pre-incubation, 15 µM, read-out: hGR % inhibition
  inhibition at 15 µM: -0.832%
Human GR; 15 minutes pre-incubation, 30 µM, read-out: hGR % inhibition
  inhibition at 30 µM: -1.45%
Human GR; 15 minutes pre-incubation, read-out: hGR % inhibition
  inhibition at 66.7 µM: -1.01%
Human GR; 6 hours pre-incubation, 15 µM, read-out: hGR % inhibition
  inhibition at 15 µM: -0.778%
Human GR; 6 hours pre-incubation, 30 µM, read-out: hGR % inhibition
  inhibition at 30 µM: -1.99%
Human GR; 6 hours pre-incubation, read-out: hGR % inhibition
  inhibition at 66.7 µM: -2.81%

## C[C@@H]1N=C(c2ccccc2Cl)c2cc([N+](=O)[O-])ccc2NC1=O [MZM, meclonazepam, reference compound]
S. mansoni adult worms; [1]
  Ratio GSH/GSSG: 55.11
S. mansoni adult worms; [2]
  % Ratio GSH/GSSG: 98.7253%
S. mansoni adult worms; [3]
  Ratio GSH/GSSG: 55.10
S. mansoni adult worms; [4]
  % Ratio GSH/GSSG: 98.7201%
Human TrxR1; 6 h preincubation
  Human TrxR1 IC50 (µM) or inhibition (%) at 66.7 µM: inhibition: n.i.^e

## O=C(C1CCCCC1)N1CC(=O)N2CCc3ccccc3C2C1 (centres unmarked) [PZQ, praziquantel]
S. mansoni adult worms; [1]
  Ratio GSH/GSSG: 55.34
S. mansoni adult worms; [2]
  % Ratio GSH/GSSG: 99.1418%
S. mansoni adult worms; [3]
  Ratio GSH/GSSG: 55.09
S. mansoni adult worms; [4]
  % Ratio GSH/GSSG: 98.6979%
Human TrxR1; 6 h preincubation
  Human TrxR1 IC50 (µM) or inhibition (%) at 66.7 µM: inhibition: n.i.^e

From paper PMC10287695, “Non-covalent inhibitors of thioredoxin glutathione reductase with schistosomicidal activity in vivo” (Nature Communications, 2023)
